Test results taken from US8614068B2, “Process for producing hepcidin” (Hellenic Pasteur Institute, priority 2007, dated 2013).
Entries after “also recorded” stand apart in the source; their conditions may differ.

Columns and labels:
TfR1 = assay: Western blot of TfR1 expression in macrophages; type: cell-based, murine
Experimental: (§1) A, RAW 264.7 macrophages were treated with 11 μM and 10 μM of synthetic hepcidin-25 (having the sequence of SEQ ID NO. 2) and Hep-25His (having the sequence of SEQ ID NO. 6) for 4 h at 37° C. or with PBS as negative control. Cell lysates were subjected to 8% SDS PAGE and Western Blot with antibodies against TfR1, Ferroportin and actin as loading control. B, The signal density of ferroportin, TfR1 and actin protein bands from two independent experiments were quantified by densitometry and their intensity relative to actin was calculated. […] Hep25-His, negative peptide and PBS was incubated with Raw 264.7 macrophages, followed by cross-linking with DSS. Cell lysates were incubated with Ni2-NTA and eluates were analyzed by Western blot using anti-FPN1 Ab. […] HEK293-Fpn cells were induced with ponasterone for 24 h and then treated with Hep25-His or synthetic hepcidin 25 (s. Hep25) for 3 h. Fluorescence was visualized with a Leica TCS confocal microscope.
Western blotting—1×10^6 cells (RAW 264.7, THP-1 or J774) were plated in […] plates and after 12-20 h cells were treated with hepcidins in serum-free DMEM for 4 h, at 37° C. Afterwards, cells were re-suspended in lysis buffer (1% Triton, 25 mM Hepes pH 7.4, 150 mM NaCl, 10% Glycerol, 5 mM EDTA, 0.5 mM PMSF, protein inhibitors (Roche, Mannheim, Germany) and quantified by Bradford assay (Biorad, Hercules, Calif.). 30 μg of cell lysate was analyzed on 8% SDS-PAGE. Proteins were transferred to Hybond C nitrocellulose membrane (Amersham Biosciences, Piscataway, N.J.) and the membranes were incubated with the primary antibodies rabbit anti-ferroportin (Alpha Diagnostics, San Antonio, Tex.), mouse anti-TfR1 (Zymed, Invitrogen, Carlsbad, Calif.) and mouse anti-β actin (Santa Cruz Biotech, Santa Cruz, Calif.), in a dilution of 1:1000, overnight at 4° C. […] Specific signal was detected with a chemiluminescence assay kit (ECL, Amersham Biosciences, Piscataway, N.J.). The bands were quantified by densitometry using the Quantity-One (Biorad, Hercules, Calif.) software. […]

ferroportin (FPN1) = target: T1, ferroportin (FPN1) (Mus musculus, UniProt Q9JHI9); assay: Cross-linking and pull-down assay; type: binding, murine; conditions: RAW 264.7, 10 nM, cross-linking with DSS, Ni2-NTA pull-down, anti-ferroportin Western blot
T1 construct: endogenous in cells; host or cells: RAW 264.7 murine macrophages
T1 sequence (Q9JHI9 1-570): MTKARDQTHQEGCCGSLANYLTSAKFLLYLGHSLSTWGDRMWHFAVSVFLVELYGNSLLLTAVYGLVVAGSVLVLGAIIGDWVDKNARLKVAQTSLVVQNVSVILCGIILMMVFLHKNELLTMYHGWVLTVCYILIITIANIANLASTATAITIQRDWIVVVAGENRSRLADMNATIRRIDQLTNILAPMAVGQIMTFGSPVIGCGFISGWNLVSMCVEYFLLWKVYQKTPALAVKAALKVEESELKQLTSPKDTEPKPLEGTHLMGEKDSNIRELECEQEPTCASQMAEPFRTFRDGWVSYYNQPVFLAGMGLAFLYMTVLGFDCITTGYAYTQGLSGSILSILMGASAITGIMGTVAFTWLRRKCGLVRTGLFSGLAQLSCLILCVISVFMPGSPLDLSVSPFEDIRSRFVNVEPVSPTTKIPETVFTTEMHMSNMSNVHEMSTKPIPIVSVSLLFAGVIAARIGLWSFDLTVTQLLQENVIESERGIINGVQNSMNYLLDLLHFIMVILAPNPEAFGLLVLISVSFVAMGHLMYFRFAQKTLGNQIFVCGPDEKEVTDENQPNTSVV
Experimental: as §1, with “calculated. Data are expressed as mean of ratios of TfR1 or to actin levels ±S.D. for each experimental condition. *p<0.01.” for “calculated.”
Disuccinimidyl suberate (DSS, Pierce, Rockford, Ill.) was added for 20 min at room temperature, followed by quenching with 20 mM TriseHCl pH 7.4 for 20 min. […] Bound proteins were eluted with 1 M imidazole and analyzed by Western blot using anti-FPN1 antibody as described above. […]

hepcidin-25His [Hep-25His]
reduction of TfR1 in comparison to untreated cells (TfR1; RAW 264.7, 10 μM, 4 h at 37° C.): 48%±17.7
decrease in TfR1 expression (TfR1; RAW 264.7 macrophages): ~50%
specific binding to FPN1 (ferroportin (FPN1)): binds specifically to FPN1; also recorded: binds specifically to FPNI
specific binding to FPN1 (ferroportin (FPN1); listed as recombinant peptide): can specifically bind to its receptor (ferroportin)
